One substance from patent publication US20130280204A1 (priority 2007, published 2013) can be followed below.

The subject of this test is Wuhan E119V. Type of test: cell-based, influenza A virus H3N2. The settings on record: read-out: IC50 (nM zanamivir) A/Wuhan/359/95 (second line).

For the substance “3-Acetamido-2-(1-(((4-(aminomethyl)phenyl)carbamoyl)oxy)-2,3-dihydroxypropyl)-4-guanidino-3,4-dihydro-2H-pyran-6-carboxylic acid [compound 4]”, the IC50 was 51 ± 5 nM.
